Assay: xn = mol fraction of the nth substance listed
Settings: 101 kPa

OCC(F)(F)F + CCCC[n+]1ccn(C)c1.O=S(=O)([N-]S(=O)(=O)C(F)(F)F)C(F)(F)F
viscosity [mPa·s]
Settings | x1 = 0.0877 | x1 = 0.2626 | x1 = 0.4753 | x1 = 0.6153 | x1 = 0.7568 | x1 = 0.8748 | x1 = 1
278.15 K | 111.4 | – | – | – | – | 5.37 | 3.28
283.15 K | 84.8 | 51.2 | 24.63 | 14.14 | 7.74 | 4.62 | 2.81
288.15 K | 66 | 40.93 | 20.36 | 11.94 | 6.67 | 4.02 | 2.42
293.15 K | 52.3 | 33.18 | 17.03 | – | 5.8 | 3.53 | 2.11
298.15 K | 42.28 | – | 14.48 | 8.81 | – | 3.12 | 1.84
303.15 K | 34.67 | 22.96 | 12.43 | 7.68 | 4.45 | 2.78 | 1.62
308.15 K | 28.83 | 19.43 | 10.77 | 6.75 | 3.94 | 2.49 | 1.43
313.15 K | 24.27 | 16.63 | – | 5.99 | 3.53 | 2.25 | 1.27
318.15 K | 20.67 | 14.38 | – | 5.35 | 3.18 | 2.04 | 1.13
323.15 K | 17.78 | 12.54 | 7.38 | 4.81 | 2.88 | 1.85 | –
328.15 K | 15.43 | 11.03 | 6.6 | 4.34 | 2.62 | 1.69 | 0.925
333.15 K | 13.51 | – | 5.94 | 3.95 | 2.4 | 1.54 | 0.824

CCCC[n+]1ccn(C)c1.O=S(=O)([N-]S(=O)(=O)C(F)(F)F)C(F)(F)F + OCC(F)(F)F
x2 = 0
Settings | viscosity [mPa·s]
278.15 K | 143
288.15 K | 82.4
293.15 K | 64.6
298.15 K | 51.6
303.15 K | 41.9
308.15 K | 34.6
313.15 K | 28.9
318.15 K | 24.4
323.15 K | 20.9
328.15 K | 18
333.15 K | 15.7

Reference: a compilation of properties of binary mixtures (doi:10.1016/j.jct.2013.10.027)
